Test results published in PubChem BioAssay AID330 (DTP/NCI, 2004).
Values joined by “and” are separate entries in the source; they are usually repeats but may differ in a detail not shown here. Identical values can stand only once. Inconclusive results and toxic doses are left out.

Tested on: P388 leukemia ip, CD2F1 mice, survival T/C
Test: NCI In Vivo Anticancer Drug Screen. Data for tumor model P388 Leukemia (intraperitoneal) in CD2F1 (CDF1) mice
Conditions: endpoint: median survival time, higher = longer survival
Procedure, shortened: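 Mice carrying the transplanted tumor received test compound or vehicle. Survival was recorded in each group, and the value is the treated-group measurement divided by that of the vehicle-treated control group.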

[1] = dose: 50.0 mg/kg/injection, schedule: Q01DX009 (ip), vehicle: saline
[2] = dose: 100.0 mg/kg/injection, schedule: Q01DX009 (ip), vehicle: saline
[3] = dose: 200.0 mg/kg/injection, schedule: Q01DX009 (ip), vehicle: saline
[4] = dose: 25.0 mg/kg/injection, schedule: Q04DX002 (ip), vehicle: saline with Tween-80
[5] = dose: 50.0 mg/kg/injection, schedule: Q04DX002 (ip), vehicle: saline with Tween-80
[6] = dose: 100.0 mg/kg/injection, schedule: Q04DX002 (ip), vehicle: saline with Tween-80
[7] = dose: 50.0 mg/kg/injection, schedule: Q01DX009 (ip), vehicle: saline with Tween-80
[8] = dose: 100.0 mg/kg/injection, schedule: Q01DX009 (ip), vehicle: saline with Tween-80
[9] = dose: 200.0 mg/kg/injection, schedule: Q01DX009 (ip), vehicle: saline with Tween-80
[10] = dose: 12.5 mg/kg/injection, schedule: Q01DX009 (ip), vehicle: distilled water + Tween-80
[11] = dose: 25.0 mg/kg/injection, schedule: Q01DX009 (ip), vehicle: distilled water + Tween-80
[12] = dose: 50.0 mg/kg/injection, schedule: Q01DX009 (ip), vehicle: distilled water + Tween-80
[13] = dose: 6.25 mg/kg/injection, schedule: Q01DX009 (ip), vehicle: saline
[14] = dose: 12.5 mg/kg/injection, schedule: Q01DX009 (ip), vehicle: saline
[15] = dose: 25.0 mg/kg/injection, schedule: Q01DX009 (ip), vehicle: saline
[16] = dose: 50.0 mg/kg/injection, schedule: Q01DX005 (ip), vehicle: saline with Tween-80
[17] = dose: 100.0 mg/kg/injection, schedule: Q01DX005 (ip), vehicle: saline with Tween-80
[18] = dose: 12.5 mg/kg/injection, schedule: Q01DX009 (ip), vehicle: saline with Tween-80
[19] = dose: 25.0 mg/kg/injection, schedule: Q01DX009 (ip), vehicle: saline with Tween-80
[20] = dose: 60.0 mg/kg/injection, schedule: Q01DX005 (ip), vehicle: Klucel (hydroxypropylcellulose) (HPC)
[21] = dose: 120.0 mg/kg/injection, schedule: Q01DX005 (ip), vehicle: Klucel (hydroxypropylcellulose) (HPC)
[22] = dose: 240.0 mg/kg/injection, schedule: Q01DX005 (ip), vehicle: Klucel (hydroxypropylcellulose) (HPC)

SMILES: CCOC1CN(C(=O)OC)N1C(=O)OC (stereo not given)
- T/C [1]: 100 % of control
- T/C [2]: 107 % of control
- T/C [3]: 105 % of control

SMILES: Cc1ccc(S(=O)(=O)NCC(CNS(=O)(=O)c2ccc(C)cc2)C(C)(C)C)cc1
- T/C (dose: 100.0 mg/kg/injection, schedule: Q01DX001 (ip), vehicle: Klucel (hydroxypropylcellulose) (HPC)): 93 % of control
- T/C (dose: 200.0 mg/kg/injection, schedule: Q01DX001 (ip), vehicle: Klucel (hydroxypropylcellulose) (HPC)): 93 % of control

SMILES: CN=C(N)N/N=C(\C)c1ccc2sc3ccccc3c2c1
- T/C [4]: 104 % of control
- T/C [5]: 106 % of control
- T/C [6]: 107 % of control

SMILES: CCCCCCC1N=C(N)N=C(N)N1c1cccc(Cl)c1 (stereo not given)
- T/C (dose: 12.5 mg/kg/injection, schedule: Q01DX005 (ip), vehicle: Klucel (hydroxypropylcellulose) (HPC)): 118 % of control
- T/C (dose: 25.0 mg/kg/injection, schedule: Q01DX005 (ip), vehicle: Klucel (hydroxypropylcellulose) (HPC)): 114 % of control

SMILES: CCCCCCCCCCCCCCCCS(=O)(=O)N/N=C(/c1ccccc1Cl)N1CCOCC1
- T/C [7]: 92 % of control
- T/C [8]: 93 % of control
- T/C [9]: 94 % of control

SMILES: CCOC(=O)C(=O)C1Cc2ccc3ccc(OC)cc3c2C1=O (stereo not given)
- T/C [10]: 109 % of control
- T/C [11]: 112 % of control
- T/C [12]: 102 % of control
- T/C (dose: 100.0 mg/kg/injection, schedule: Q01DX009 (ip), vehicle: distilled water + Tween-80): 94 % of control
- T/C (dose: 200.0 mg/kg/injection, schedule: Q01DX009 (ip), vehicle: distilled water + Tween-80): 102 % of control

SMILES: Cc1c(COC(=O)NC2CCCCC2)c(COC(=O)NC2CCCCC2)c2n1CCc1ccccc1-2
- T/C [10]: 178 % of control
- T/C [11]: 182 % of control
- T/C [12]: 101 % of control

SMILES: CN(C)CC(CN(C)C)C(=O)c1ccccc1
- T/C (dose: 3.12 mg/kg/injection, schedule: Q01DX009 (ip), vehicle: saline): 103 % of control and 105 % of control
- T/C [13]: 105 % of control (2×) and 122 % of control
- T/C [14]: 107 % of control and 117 % of control and 112 % of control
- T/C [15]: 117 % of control [middle of 5 runs]
- T/C [1]: 124 % of control

SMILES: Cc1cc(=O)[nH]c2c3sc4ccccc4c(=O)c3c3ccccc3c12
- T/C (dose: 12.5 mg/kg/injection, schedule: Q04DX003 (ip), vehicle: Klucel (hydroxypropylcellulose) (HPC)): 99 % of control
- T/C (dose: 25.0 mg/kg/injection, schedule: Q04DX003 (ip), vehicle: Klucel (hydroxypropylcellulose) (HPC)): 99 % of control
- T/C (dose: 50.0 mg/kg/injection, schedule: Q04DX003 (ip), vehicle: Klucel (hydroxypropylcellulose) (HPC)): 95 % of control
- T/C (dose: 100.0 mg/kg/injection, schedule: Q04DX003 (ip), vehicle: Klucel (hydroxypropylcellulose) (HPC)): 98 % of control

SMILES: CC(=O)OC(CCC1CO1)OC(C)=O (stereo not given)
- T/C [1]: 100 % of control
- T/C [2]: 98 % of control
- T/C [3]: 100 % of control

SMILES: CCCN1C[C@H](CSC)C[C@@H]2c3cccc4[nH]cc(c34)C[C@H]21
- T/C (dose: 6.25 mg/kg/injection, schedule: Q01DX009 (ip), vehicle: Klucel (hydroxypropylcellulose) (HPC)): 103 % of control
- T/C (dose: 12.5 mg/kg/injection, schedule: Q01DX009 (ip), vehicle: Klucel (hydroxypropylcellulose) (HPC)): 101 % of control
- T/C (dose: 25.0 mg/kg/injection, schedule: Q01DX009 (ip), vehicle: Klucel (hydroxypropylcellulose) (HPC)): 99 % of control

SMILES: CC1(C)NN=C2C(=CC=C3NNC(C)(C)N32)n2cccc21
- T/C [16]: 104 % of control
- T/C [17]: 106 % of control

SMILES: O=C1/C(=C/c2cccc(O)c2)COc2ccccc21
- T/C (dose: 60.0 mg/kg/injection, schedule: Q01DX005 (ip), vehicle: saline with Tween-80): 95 % of control
- T/C (dose: 120.0 mg/kg/injection, schedule: Q01DX005 (ip), vehicle: saline with Tween-80): 94 % of control
- T/C (dose: 240.0 mg/kg/injection, schedule: Q01DX005 (ip), vehicle: saline with Tween-80): 87 % of control

SMILES: CC1=NN(C(=O)CC(=O)Nc2ccc(C(=O)O)cc2)C(=O)C1N=Nc1ccc(S(N)(=O)=O)cc1 (stereo not given)
- T/C [16]: 96 % of control
- T/C [17]: 94 % of control
- T/C (dose: 200.0 mg/kg/injection, schedule: Q01DX005 (ip), vehicle: saline with Tween-80): 93 % of control

SMILES: CN(C)c1cc(=O)c2c(ccc3ccccc32)o1
- T/C [7]: 92 % of control
- T/C [8]: 95 % of control
- T/C [9]: 95 % of control

SMILES: [CH3][Sn]1([CH3])[O]P(=O)(c2ccccc2)[O]1
- T/C (dose: 6.25 mg/kg/injection, schedule: Q01DX009 (ip), vehicle: saline with Tween-80): 99 % of control
- T/C [13]: 110 % of control
- T/C [18]: 96 % of control
- T/C [14]: 112 % of control
- T/C [19]: 107 % of control
- T/C [15]: 119 % of control
- T/C [7]: 105 % of control
- T/C [1]: 112 % of control and 120 % of control

SMILES: O=C(NC1COB(c2cc(C(F)(F)F)cc(C(F)(F)F)c2)OC1c1ccc([N+](=O)[O-])cc1)C(Cl)Cl (stereo not given)
- T/C [20]: 100 % of control
- T/C [21]: 100 % of control
- T/C [22]: 99 % of control

SMILES: O=C1CCNC(=O)N1CN1CCc2ccccc2C1
- T/C [20]: 108 % of control
- T/C [21]: 99 % of control
- T/C [22]: 108 % of control

SMILES: CN(C)c1nc(O)cc(=O)[nH]1
- T/C [7]: 106 % of control
- T/C [8]: 100 % of control
- T/C [9]: 89 % of control

SMILES: CSC(=S)/N=c1/sccn1C
- T/C [4]: 100 % of control
- T/C [5]: 100 % of control
- T/C [6]: 99 % of control

SMILES: CC(C)(C)C1CCN(Cc2ccccc2)CC1
- T/C (dose: 25.0 mg/kg/injection, schedule: Q01DX005 (ip), vehicle: saline with Tween-80): 103 % of control
- T/C [16]: 103 % of control
- T/C [17]: 100 % of control

SMILES: CCN=C1SCCCS1
- T/C [18]: 103 % of control
- T/C [19]: 118 % of control
- T/C [7]: 113 % of control and 119 % of control
- T/C [8]: 117 % of control

SMILES: NC(=Nc1ccccc1)Nc1ccccc1
- T/C [18]: 99 % of control
- T/C [19]: 104 % of control
- T/C [7]: 102 % of control

SMILES: COc1ccc(S(=O)(=O)N(C)/N=C/C(=O)O)cc1
- T/C (dose: 12.5 mg/kg/injection, schedule: Q01DX005 (ip), vehicle: distilled water + Tween-80): 100 % of control
- T/C (dose: 25.0 mg/kg/injection, schedule: Q01DX005 (ip), vehicle: distilled water + Tween-80): 106 % of control
- T/C (dose: 50.0 mg/kg/injection, schedule: Q01DX005 (ip), vehicle: distilled water + Tween-80): 106 % of control
- T/C (dose: 100.0 mg/kg/injection, schedule: Q01DX005 (ip), vehicle: distilled water + Tween-80): 95 % of control
- T/C (dose: 200.0 mg/kg/injection, schedule: Q01DX005 (ip), vehicle: distilled water + Tween-80): 97 % of control
- T/C (dose: 200.0 mg/kg/injection, schedule: Q01DX005 (ip), vehicle: water): 106 % of control
- T/C (dose: 400.0 mg/kg/injection, schedule: Q01DX005 (ip), vehicle: water): 102 % of control

SMILES: COc1cc2c(cc1O)C(CSC)Cc1cc3c(cc1N(C)CC2)OCO3 (stereo not given)
- T/C [18]: 100 % of control
- T/C [19]: 100 % of control
- T/C [7]: 102 % of control
- T/C [8]: 88 % of control
- T/C [9]: 95 % of control

SMILES: CC1CCC(C(C)C)C(NC(=O)c2ccc[n+](C)c2)C1 (stereo not given)
- T/C (dose: 25.0 mg/kg/injection, schedule: Q04DX002 (ip), vehicle: saline): 97 % of control
- T/C (dose: 50.0 mg/kg/injection, schedule: Q04DX002 (ip), vehicle: saline): 97 % of control

SMILES: CC(C)(C)CC(C)(C)c1ccc(OCc2ccccc2Cl)cc1
- T/C [7]: 98 % of control
- T/C [8]: 95 % of control
- T/C [9]: 100 % of control

SMILES: C=Cc1c(Cl)nc(C)c(C)c1-c1ccc(OC)c(OC)c1OCc1ccccc1
- T/C (dose: 50.0 mg/kg/injection, schedule: Q01DX005 (ip), vehicle: Klucel (hydroxypropylcellulose) (HPC)): 92 % of control
- T/C (dose: 100.0 mg/kg/injection, schedule: Q01DX005 (ip), vehicle: Klucel (hydroxypropylcellulose) (HPC)): 104 % of control
- T/C (dose: 200.0 mg/kg/injection, schedule: Q01DX005 (ip), vehicle: Klucel (hydroxypropylcellulose) (HPC)): 91 % of control

SMILES: NC(Cc1ccccc1F)c1nn[nH]n1 (stereo not given)
- T/C [19]: 108 % of control
- T/C [7]: 97 % of control
- T/C [8]: 99 % of control

SMILES: Cc1cccn2c(CCCc3nnc4c(C)cccn34)nnc12
- T/C [7]: 100 % of control
- T/C [8]: 101 % of control
- T/C [9]: 101 % of control

SMILES: CCOCCSc1ccccc1
- T/C [19]: 99 % of control
- T/C [7]: 103 % of control
- T/C [8]: 112 % of control
- T/C [9]: 105 % of control

SMILES: CN=C(C)Nc1ccccc1OC
- T/C [14]: 111 % of control
- T/C [15]: 114 % of control
- T/C [1]: 113 % of control and 97 % of control
